The assay relates to NF-κB mediated transcription. Put plainly: NF-κB driven β-lactamase reporter assay in ECV-304 NF-κB.βlaZ cells (AURORA CCF2 fluorescence). In kind it is cell-based, human. Particulars: 10 μM compound, ECV-304 NF-κB.βlaZ cells stimulated with 10 ng/mL TNF-α or 100 pg/mL IL-1β, 6 hours at 37° C., inhibition of maximum blue/green ratio; for inhibition at 10 µM: Homo sapiens, read-out: Percent Inhibition at 10 μM. The procedure, abridged:
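Blue/green (460/530 nm, excitation 395 nm) CCF2 emission ratio quantified NF-κB-driven β-lactamase expression in the stably transfected endothelial-like ECV-304 clone 1E8.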
Background: Reporter assays use an easily measured gene product as a stand-in for the process of interest.

Where two headings read alike, the source gives them in different places. A value given as a limit tells only on which side of the number the result lay.

A word on the inhibition: it is the share of the control response that was lost under treatment.

In the case of `CCCCCCCCCCCCCCCCCCN(C)S(=O)(=O)NC(=O)Nc1c(C(C)C)cccc1C(C)C` [Example 80, Urea, N-[2,6-bis(1-methylethyl)phenyl]-N′-[(methyloctadecylamino)-sulfonyl]-], the inhibition at 10 µM (ECV-304, 6 h) is less than 10%.

As to `C=CCN(CC=C)S(=O)(=O)NC(=O)Nc1c(C(C)C)cccc1C(C)C` [Example 81, Urea, N-[2,6-bis(1-methylethyl)phenyl]-N′-[(di-2-propenylamino)-sulfonyl]-], the inhibition at 10 µM (ECV-304, 6 h) was less than 10%.

For `CC(C)c1cccc(C(C)C)c1NC(=O)NS(=O)(=O)N(C(C)C)C(C)(C)C` [Example 82, Urea, N-[2,6-bis(1-methylethyl)phenyl]-N′-[[(1,1-dimethylethyl)(1-methylethyl)-amino]sulfonyl]-], the inhibition at 10 µM (ECV-304, 6 h) is less than 10%.

Regarding `CCC(C)N(C(C)CC)S(=O)(=O)NC(=O)Nc1c(C(C)C)cccc1C(C)C` (stereo not drawn) [Example 83, Urea, N-[2,6-bis(1-methylethyl)phenyl]-N′-[[bis(1-methylpropyl)-amino]-sulfonyl]-], the inhibition at 10 µM (ECV-304, 6 h) is 10.6%.

Take `CCCCCCCCCCCCCCN(C)S(=O)(=O)NC(=O)Nc1c(C(C)C)cccc1C(C)C` [Example 84, Urea, N-[2,6-bis(1-methylethyl)phenyl]-N′-[(methyltetradecylamino)-sulfonyl]-]: the inhibition at 10 µM (ECV-304, 6 h) was determined as 44.8%.

On to `CCCCCCCCN(CCCCCCCC)S(=O)(=O)NC(=O)Oc1c(C(C)C)cccc1C(C)C` [Example 85, Carbamic acid, [(dioctylamino)sulfonyl]-, 2,6-bis(1-methylethyl)phenyl ester], for which the inhibition at 10 µM was determined as 45%.

With `CC(C)c1cccc(C(C)C)c1OC(=O)NS(=O)(=O)N(C(C)C)C1CCCCC1` [Example 86, Carbamic acid, [[cyclohexyl(1-methylethyl)amino]sulfonyl]-, 2,6-bis(1-methylethyl)phenyl ester], the inhibition at 10 µM stood at 16%.

`CCCCCCCCN(C)S(=O)(=O)NC(=O)Oc1c(C(C)C)cccc1C(C)C` [Example 87, Carbamic acid, [(methyloctylamino)sulfonyl]-, 2,6-bis(1-methylethyl)-phenyl ester]: the inhibition at 10 µM is less than 10%.

As for `CCCCCCN(CCCCCC)S(=O)(=O)NC(=O)Oc1c(C(C)C)cccc1C(C)C` [Example 88, Carbamic acid, [(dihexylamino)sulfonyl]-, 2,6-bis(1-methylethyl)phenyl ester], the inhibition at 10 µM was less than 10%.

For the compound `CCCCCN(CCCCC)S(=O)(=O)NC(=O)Oc1c(C(C)C)cccc1C(C)C` [Example 89, Carbamic acid, [(dipentylamino)sulfonyl]-, 2,6-bis(1-methylethyl)phenyl ester], the inhibition at 10 µM stood at 31.9%.

With `CCCCCCCCCCOS(=O)(=O)NC(=O)Nc1c(C(C)C)cccc1C(C)C` [Example 90, Sulfamic acid, [[[2,6-bis(1-methylethyl)phenyl]amino]carbonyl]-, decyl ester], the inhibition at 10 µM (ECV-304, 6 h) is 13.6%.

As for `CC(C)c1cccc(C(C)C)c1OS(=O)(=O)NC(=O)Oc1c(C(C)(C)C)cccc1C(C)(C)C` [Example 91, Carbamic acid, [[2,6-bis(1-methylethyl)phenoxy]sulfonyl]-, 2,6-bis(1,1-dimethylethyl)phenyl ester], the inhibition at 10 µM amounted to 39.7%.

As to `CCCCCCCCCCCCOS(=O)(=O)NC(=O)Oc1c(-c2ccccc2)cccc1-c1ccccc1` [Example 92, Carbamic acid, [(dodecyloxy)sulfonyl]-, [1,1′:3′,1″-terphenyl]-2′-yl ester], the inhibition at 10 µM is less than 10%.

Take `CCCCCCCCCCCCOS(=O)(=O)NC(=O)Sc1c(C(C)C)cccc1C(C)C` [Example 93, Carbamothioic acid, [(dodecyloxy)sulfonyl]-, S-[2,6-bis(1-methylethyl)-phenyl] ester]: the inhibition at 10 µM (ECV-304, 6 h) was 14.5%.

`CCCCCCC(C)OS(=O)(=O)NC(=O)Nc1c(C(C)C)cccc1C(C)C` (stereo not drawn) [Example 94, Sulfamic acid, [[[2,6-bis(1-methylethyl)phenyl]amino]carbonyl]-, 1-methylheptyl ester,]: the “Percent Inhibition at 10 μM” value was less than 10%.

`CC(C)c1cccc(C(C)C)c1NC(=O)NS(=O)(=O)Oc1c(C(C)C)cccc1C(C)C` [Example 95, Sulfamic acid, [[[2,6-bis(1-methylethyl)phenyl]amino]carbonyl]-, 2,6-bis(1-methylethyl)phenyl ester]: the inhibition at 10 µM (ECV-304, 6 h) was 33.1%.

Consider `CC(C)c1cccc(C(C)C)c1OC(=O)NS(=O)(=O)Oc1ccccc1` [Example 97, Carbamic acid, (phenoxysulfonyl)-, 2,6-bis(1-methylethyl)phenyl ester], for which the inhibition at 10 µM is less than 10%.

As to `Cc1cccc(C)c1OS(=O)(=O)NC(=O)Oc1c(C(C)C)cccc1C(C)C` [Example 98, Carbamic acid, [(2,6-dimethylphenoxy)sulfonyl]-, 2,6-bis(1-methylethyl)-phenyl ester], the inhibition at 10 µM is less than 10%.

For the compound `CCCCN(CCCC)S(=O)(=O)N(C)C(=O)Nc1c(C(C)C)cccc1C(C)C` [Example 99, Urea, N′-[2,6-bis(1-methylethyl)phenyl]-N-[(dibutylamino)sulfonyl]-N-methyl-], the inhibition at 10 µM (ECV-304, 6 h) was less than 10%.

For `CC(C)(C)c1cccc(C(C)(C)C)c1OC(=O)NS(=O)(=O)Oc1c(C(C)(C)C)cccc1C(C)(C)C` [Example 100, Carbamic acid, [[2,6-bis(1,1-dimethylethyl)phenoxy]sulfonyl]-, 2,6-bis(1,1-dimethylethyl)phenyl ester], the inhibition at 10 µM stood at 50%.

As to `CC(C)c1cccc(C(C)C)c1OC(=O)NS(=O)(=O)Oc1c(C(C)(C)C)cccc1C(C)(C)C` [Example 102, Carbamic acid, [[2,6-bis(1,1-dimethylethyl)phenoxy]sulfonyl]-, 2,6-bis(1-methylethyl)phenyl ester], the inhibition at 10 µM came to 20.6%.

Consider `CC(C)c1cccc(C(C)C)c1OC(=O)NS(=O)(=O)Oc1c(F)cccc1F` [Example 103, Carbamic acid, [(2,6-difluorophenoxy)sulfonyl]-, 2,6-bis(1-methylethyl)-phenyl ester], for which the inhibition at 10 µM is less than 10%.

Take `CC1(C)OCC(NC(=O)NS(=O)(=O)NCC23CC4CC(CC(C4)C2)C3)C(c2ccccc2)O1` (stereo not drawn) [Example 104, Urea, N-(2,2-dimethyl-4-phenyl-1,3-dioxan-5-yl)-N′-[[(tricyclo[3.3.1.1^3,7]dec-1-ylmethyl)amino]sulfonyl]-, (4S-#cis/)-]: the “Percent Inhibition at 10 μM” value is less than 10%.

For the compound `CCCCCCCCCC(=O)NS(=O)(=O)Oc1c(C(C)C)cccc1C(C)C` [Example 106, Sulfamic acid, (1-oxodecyl)-, 2,6-bis(1-methylethyl)phenyl ester], the inhibition at 10 µM (ECV-304, 6 h) was determined as 72.3%.

With `CCCCCCCCCCCCCCCCOS(=O)(=O)NC(=O)Oc1c(C(C)C)cccc1C(C)C` [Example 107, Carbamic acid, [(hexadecyloxy)sulfonyl]-, 2,6-bis(1-methylethyl)phenyl ester], the inhibition at 10 µM was less than 10%.

With `COc1cccc(OC)c1OC(=O)NS(=O)(=O)Oc1c(C(C)C)cccc1C(C)C` [Example 108, Carbamic acid, [[2,6-bis(1-methylethyl)phenoxy]sulfonyl]-, 2,6-dimethoxyphenyl ester], the inhibition at 10 µM is less than 10%.

Regarding `CCCCCCC(C)OC(=O)NS(=O)(=O)Oc1c(C(C)C)cccc1C(C)C` (stereo not drawn) [Example 109, Carbamic acid, [[2,6-bis(1-methylethyl)phenoxy]sulfonyl]-, 1-methylheptyl ester], the inhibition at 10 µM (ECV-304, 6 h) came out at 51.4%.

With `CC(C)c1cc([N+](=O)[O-])cc(C(C)C)c1OC(=O)NS(=O)(=O)Oc1c(C(C)C)cccc1C(C)C` [Example 110, Carbamic acid, [[2,6-bis(1-methylethyl)phenoxy]sulfonyl]-, 2,6-bis(1-methylethyl)-4-nitrophenyl ester], the inhibition at 10 µM was 15.5%.

On to `CC(C)c1cccc(C(C)C)c1OS(=O)(=O)NC(=O)OCCOC(=O)NS(=O)(=O)Oc1c(C(C)C)cccc1C(C)C` [Example 111, Carbamic acid, [[2,6-bis(1-methylethyl)phenoxy]sulfonyl]-, 1,2-ethanediyl ester], for which the “Percent Inhibition at 10 μM” value is less than 10%.

With `CC(C)c1cccc(C(C)C)c1OS(=O)(=O)NC(=O)OCC(COC(=O)NS(=O)(=O)Oc1c(C(C)C)cccc1C(C)C)OC(=O)NS(=O)(=O)Oc1c(C(C)C)cccc1C(C)C` [Example 112, Carbamic acid, [[2,6-bis(1-methylethyl)phenoxy]sulfonyl]-, 1,2,3-propanetriyl ester], the “Percent Inhibition at 10 μM” value is recorded as less than 10%.

With `CC(C)c1cc(Br)cc(C(C)C)c1OC(=O)NS(=O)(=O)Oc1c(C(C)C)cccc1C(C)C` [Example 113, Carbamic acid, [[2,6-bis(1-methylethyl)phenoxy]sulfonyl]-, 4-bromo-2,6-bis(1-methylethyl)phenyl ester], the inhibition at 10 µM is less than 10%.

For the compound `CC(C)c1cccc(C(C)C)c1OS(=O)(=O)NC(=O)Oc1c(-c2ccccc2)cccc1-c1ccccc1` [Example 114, Carbamic acid, [[2,6-bis(1-methylethyl)phenoxy]sulfonyl]-, [1,1′:3′,1″-terphenyl]-2′-yl ester], the inhibition at 10 µM was less than 10%.

For the compound `COc1cc(C(C)(C)C)c(OC(=O)NS(=O)(=O)Oc2c(C(C)C)cccc2C(C)C)c(C(C)(C)C)c1` [Example 115, Carbamic acid, [[2,6-bis(1-methylethyl)phenoxy]sulfonyl]-, 2,6-bis(1,1-dimethylethyl)-4-methoxyphenyl ester], the inhibition at 10 µM turned out to be 39%.

Values taken from US20020183384A1, “Methods of treating nuclear factor-kappa B mediated diseases and disorders” (priority 2001, published 2002).
